Experimental data taken from EP1712550A2, “Substituted triazole diamine derivatives as kinase inhibitors” (priority 2000, dated 2002).
Like-named read-outs stand apart in the source and are kept apart here.

Biological target: T1, EGFR (epidermal growth factor receptor) (Homo sapiens, UniProt P00533)
T1 construct: is purified from human A431 cell membranes (Sigma, St. Louis, MO, Cat.# E3641); purchased Sigma, St. Louis, MO E3641; host or cells: human A431 cell membranes (endogenous protein)
Assay: Kinase Selectivity Assay EGF-R
Format: biochemical

[1] = read-out: Kinase Assay (IC50 uM) EGF-R
[2] = Kinase Selectivity, Table 2, read-out: EGF-R IC50

T1 sequence (P00533 25-1210): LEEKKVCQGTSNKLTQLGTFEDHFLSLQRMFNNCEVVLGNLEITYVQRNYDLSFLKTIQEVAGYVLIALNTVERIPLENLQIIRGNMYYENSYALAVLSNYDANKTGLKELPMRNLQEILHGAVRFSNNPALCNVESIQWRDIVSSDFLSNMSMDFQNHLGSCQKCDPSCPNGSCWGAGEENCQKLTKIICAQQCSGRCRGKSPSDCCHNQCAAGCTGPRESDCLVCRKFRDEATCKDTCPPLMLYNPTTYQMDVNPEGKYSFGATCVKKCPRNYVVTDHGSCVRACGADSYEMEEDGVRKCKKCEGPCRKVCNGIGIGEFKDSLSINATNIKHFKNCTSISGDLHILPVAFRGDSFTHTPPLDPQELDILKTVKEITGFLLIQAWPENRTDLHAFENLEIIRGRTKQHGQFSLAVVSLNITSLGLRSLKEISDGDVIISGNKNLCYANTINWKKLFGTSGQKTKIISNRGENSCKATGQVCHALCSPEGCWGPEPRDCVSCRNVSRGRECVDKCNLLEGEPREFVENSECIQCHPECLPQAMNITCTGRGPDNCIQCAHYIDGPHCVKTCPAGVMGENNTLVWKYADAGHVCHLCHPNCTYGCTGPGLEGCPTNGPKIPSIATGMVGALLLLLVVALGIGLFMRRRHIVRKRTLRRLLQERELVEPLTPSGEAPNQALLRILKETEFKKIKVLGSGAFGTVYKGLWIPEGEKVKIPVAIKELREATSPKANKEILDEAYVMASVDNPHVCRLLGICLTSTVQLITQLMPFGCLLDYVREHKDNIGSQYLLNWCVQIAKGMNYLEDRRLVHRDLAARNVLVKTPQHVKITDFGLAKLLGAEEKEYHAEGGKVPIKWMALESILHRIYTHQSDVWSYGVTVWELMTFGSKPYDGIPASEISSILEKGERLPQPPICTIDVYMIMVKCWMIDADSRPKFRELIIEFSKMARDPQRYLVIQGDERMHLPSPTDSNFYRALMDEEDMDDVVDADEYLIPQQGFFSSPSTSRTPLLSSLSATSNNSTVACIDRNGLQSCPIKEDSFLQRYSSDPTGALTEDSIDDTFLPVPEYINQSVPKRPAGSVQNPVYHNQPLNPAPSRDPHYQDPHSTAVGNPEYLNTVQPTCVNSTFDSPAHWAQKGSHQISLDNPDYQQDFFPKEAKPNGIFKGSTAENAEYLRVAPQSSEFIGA

SMILES	IC50 [1]	IC50 [2]
Nc1nc(Nc2ccc(S(=O)(=O)Nc3ccccn3)cc2)nn1C(=O)c1c(F)cccc1F [Cpd 118, 4-[[5-amino-1-(2,6-difluorobenzoyl)-1H-1,2,4-triazol-3-yl]amino]-N-(2-pyridinyl)-benzenesulfonamide]	> 100 µM	
Nc1nc(Nc2ccc(S(N)(=O)=O)cc2)nn1C(=O)c1sccc1Cl [Cpd 17, 4-[[5-amino-1-[(3-chloro-2-thienyl)carbonyl]-1H-1,2,4-triazol-3-yl]amino]-benzenesulfonamide]		4.13 µM
Cc1ccsc1C(=O)n1nc(Nc2ccc(N3CCCS3(=O)=O)cc2)nc1N [Cpd 116, N^3-[4-(1,1-dioxido-2-isothiazolidinyl)phenyl]-1-[(3-methyl-2-thienyl)carbonyl]-1H-1,2,4-triazole-3,5-diamine]	> 100 µM	
Cc1ccsc1C(=O)n1nc(Nc2ccc(N3CCNC3=O)cc2)nc1N [Cpd 113, 1-[4-[[5-amino-1-[(3-methyl-2-thienyl)carbonyl]-1H-1,2,4-triazol-3-yl]amino]phenyl]-2-imidazolidinone]	> 10 µM	
Nc1nc(Nc2ccc(S(N)(=O)=O)cc2)nn1C(=O)c1cccs1 [Cpd 14, 4-[[5-amino-1-(2-thienylcarbonyl)-1H-1,2,4-triazol-3-yl]amino]-benzenesulfonamide]		1.92 µM
Nc1nc(Nc2ccc(S(N)(=O)=O)cc2)nn1C(=O)c1c(F)cccc1F [Cpd 1, 4-[[5-amino-1-(2,6-difluorobenzoyl)-1H-1,2,4-triazol-3-yl]amino]-benzenesulfonamide]		> 100 µM
CC(C)(C)c1ccc(C(=O)n2nc(Nc3ccc(S(N)(=O)=O)cc3)nc2N)s1 [Cpd 51, 4-[[5-amino-1-[[5-(1,1-dimethylethyl)-2-thienyl]carbonyl]-1H-1,2,4-triazol-3-yl]amino]-benzenesulfonamide]	1.1 µM	
Cc1cc(C)c(C(=O)n2nc(Nc3ccc(-n4ccnc4)cc3)nc2N)s1 [Cpd 92, 1-[(3,5-diinethyl-2-thienyl)carbonyl]-N^3-[4-(1H-imidazol-1-yl)phenyl]-1H-1,2,4-triazole-3,5-diamine]	> 100 µM	
CN1CCN(c2ccc(Nc3nc(N)n(C(=O)c4c(F)cccc4F)n3)cc2)CC1 [Cpd 71, 1-(2,6-difluorobenzoyl)-N^3-[4-(4-methyl-1-piperazinyl)phenyl]-1H-1,2,4-triazole-3,5-diamine]	> 10 µM	
Nc1nc(Nc2ccc(S(N)(=O)=O)cc2)nn1C(=O)c1ccsc1 [Cpd 30, 4-[[5-amino-1-(3-thienylcarbonyl)-1H-1,2,4-triazol-3-yl]amino]-benzenesulfonamide]		9.6 µM
CC(O)c1ccc(F)c(C(=O)n2nc(Nc3ccc(S(N)(=O)=O)cc3)nc2N)c1F (stereo not drawn) [Cpd 58, 4-[[5-amino-1-[2,6-difluoro-3-(1-hydroxyethyl)benzoyl]-1H-1,2,4-triazol-3-yl]amino]-benzenesulfonamide]	> 10 µM	
CCc1ccc(C(=O)n2nc(Nc3ccc(S(=O)(=O)NCCN(C)C)cc3)nc2N)s1 [Cpd 103, 4-[[5-amino-1-[(5-ethyl-2-thienyl)carbonyl]-1H-1,2,4-triazol-3-yl]amino]-N-[2-(dimethylamino)ethyl]-benzenesulfonamide]	> 10 µM	
Nc1nc(Nc2ccc(S(=O)(=O)N3CCCCC3)cc2)nn1C(=O)c1cccs1 [Cpd 23, N^3-[4-(1-piperidinylsulfonyl)phenyl]-1-(2-thienylcarbonyl)-1H-1,2,4-triazole-3,5-diamine]		> 100 µM
Nc1nc(Nc2ccc(S(N)(=O)=O)cc2)nn1C(=O)c1sccc1F [Cpd 16, 4-[[5-amino-1-[(3-fluoro-2-thienyl)carbonyl]-1H-1,2,4-triazol-3-yl]amino]-benzenesulfonamide]		> 100 µM
CCc1ccc(C(=O)n2nc(Nc3ccc(S(N)(=O)=O)cc3)nc2N)s1 [Cpd 32, 4-[[5-amino-1-[(5-ethyl-2-thienyl)carbonyl]-1H 1,2,4-triazol-3-yl]amino]-benzenesulfonamide]		> 100 µM
